Test results reported in ChEMBL document CHEMBL1201862, “PubChem BioAssay data set” (2004).
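Tested at 5 concentrations; 48 h exposure; 96-well plates; endpoints linearly interpolated, else capped at highest concentration. GI50 is the concentration that inhibits growth by half.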 Calls of active or inactive are those of the source. Rule as the data show it: active = GI50 up to about 1.1 µM and inactive = higher.

What was measured:
Assay in all cases: NCI tumour cell line growth inhibition, 48 h
U-251 = test system: U-251
IGROV-1 = test system: IGROV-1
NCI-H226 = test system: NCI-H226
SK-MEL-28 = test system: SK-MEL-28
OVCAR-5 = test system: OVCAR-5
M14 = test system: M14
ACHN = test system: ACHN
MOLT-4 = test system: MOLT-4
HCC 2998 = test system: HCC 2998
CAKI-1 = test system: CAKI-1
M19-MEL = test system: M19-MEL
HOP-62 = test system: HOP-62
SR = test system: SR
OVCAR-8 = test system: OVCAR-8
NCI/ADR-RES = test system: NCI/ADR-RES
MCF7 = test system: MCF7

Row | SMILES | GI50 (U-251) | GI50 (IGROV-1) | GI50 (NCI-H226) | GI50 (SK-MEL-28) | GI50 (OVCAR-5) | GI50 (M14) | GI50 (ACHN) | GI50 (MOLT-4) | GI50 (HCC 2998) | GI50 (CAKI-1) | GI50 (M19-MEL) | GI50 (HOP-62) | GI50 (SR) | GI50 (OVCAR-8) | GI50 (NCI/ADR-RES) | GI50 (MCF7)
1 | CC(C)(C)C(=O)ON1N=NC2C3CC(OCc4ccccc4)(OCc4ccccc4)C(O3)C21 (centres undefined) | 16.9 µM (inactive) | 35.1 µM (inactive) | 17.7 µM (inactive) | 19.1 µM (inactive) | 33.6 µM (inactive) | 26.4 µM (inactive) | 27.7 µM (inactive) | 3.41 µM (inactive) | 14.2 µM (inactive) | 31 µM (inactive) | 15.8 µM (inactive) | 28.3 µM (inactive) | – | – | – | –
2 | O=Cc1ccccc1OCCOc1cc(OCCOc2ccccc2C=O)c(OCCOc2ccccc2C=O)cc1OCCOc1ccccc1C=O | 12.6 µM (inactive) | > 62.8 µM (inactive) | > 54.8 µM (inactive) | > 100 µM (inactive) | > 100 µM (inactive) | > 83.9 µM (inactive) | 47.3 µM (inactive) | > 45.1 µM (inactive) | > 100 µM (inactive) | > 70.6 µM (inactive) | > 100 µM (inactive) | 70.3 µM (inactive) | 39.8 µM (inactive) | 47.1 µM (inactive) | – | –
3 | CCO/C([O-])=C(/C=O)[n+]1c(C)n(C)c2ccccc21 | > 100 µM (inactive) | > 100 µM (inactive) | > 100 µM (inactive) | > 100 µM (inactive) | > 100 µM (inactive) | > 100 µM (inactive) | – | > 100 µM (inactive) | > 100 µM (inactive) | > 100 µM (inactive) | > 100 µM (inactive) | > 100 µM (inactive) | – | > 100 µM (inactive) | – | –
4 | C1CCC(N=C2N(C3CCCCC3)C(=NC3CCCCC3)N2C2CCCCC2)CC1 | > 100 µM (inactive) | > 100 µM (inactive) | – | > 100 µM (inactive) | > 100 µM (inactive) | > 100 µM (inactive) | > 100 µM (inactive) | > 100 µM (inactive) | > 100 µM (inactive) | – | > 100 µM (inactive) | > 100 µM (inactive) | > 100 µM (inactive) | > 100 µM (inactive) | – | –
5 | Cc1nc(C(N)=S)sc1C(=O)CC(=O)C(=O)Nc1c(C(C)C)cccc1C(C)C | 36.6 µM (inactive) | 61.4 µM (inactive) | 41.4 µM (inactive) | > 100 µM (inactive) | > 100 µM (inactive) | 35.2 µM (inactive) | 81.5 µM (inactive) | 41 µM (inactive) | 43.3 µM (inactive) | 42.1 µM (inactive) | 34.1 µM (inactive) | 86.9 µM (inactive) | 26.4 µM (inactive) | 36 µM (inactive) | – | –
6 | COc1cc2cnc3c4ccccc4ccc3c2cc1OC | > 100 µM (inactive) | > 100 µM (inactive) | – | > 100 µM (inactive) | > 100 µM (inactive) | > 100 µM (inactive) | > 100 µM (inactive) | > 100 µM (inactive) | > 100 µM (inactive) | > 100 µM (inactive) | > 100 µM (inactive) | > 100 µM (inactive) | – | > 100 µM (inactive) | – | –
7 | CN(C)CCNC(=O)c1cccc2nc3ccc4cccnc4c3nc12 | 0.405 µM (active) | 0.359 µM (active) | 0.319 µM (active) | 0.944 µM (active) | 0.916 µM (active) | 0.631 µM (active) | 0.126 µM (active) | 0.0441 µM (active) | 0.635 µM (active) | 0.224 µM (active) | 0.43 µM (active) | 0.393 µM (active) | – | 0.194 µM (active) | – | –
8 | CN(C)CCNC(=O)c1cc([N+](=O)[O-])cc2ccc(-c3ccccc3)nc12 | 10.2 µM (inactive) | 6.92 µM (inactive) | 3.27 µM (inactive) | 9.33 µM (inactive) | 6.4 µM (inactive) | 33.7 µM (inactive) | 10.5 µM (inactive) | – | 7.36 µM (inactive) | 10 µM (inactive) | 5.93 µM (inactive) | 12.9 µM (inactive) | – | 8.11 µM (inactive) | 2.17 µM (inactive) | 2.71 µM (inactive)
9 | COC(=O)CC1N/C(=N\C#N)N(CCc2c[nH]c3ccccc23)C1=O (centres undefined) | > 100 µM (inactive) | > 100 µM (inactive) | > 100 µM (inactive) | > 100 µM (inactive) | > 100 µM (inactive) | > 100 µM (inactive) | > 100 µM (inactive) | > 100 µM (inactive) | 34.5 µM (inactive) | – | > 100 µM (inactive) | > 100 µM (inactive) | 94.2 µM (inactive) | > 100 µM (inactive) | – | –
10 | O=C(CC1(O)C(=O)Nc2ccccc21)c1ccc(O)cc1O (centres undefined) | – | > 100 µM (inactive) | > 100 µM (inactive) | > 100 µM (inactive) | > 100 µM (inactive) | > 100 µM (inactive) | > 100 µM (inactive) | > 100 µM (inactive) | – | > 100 µM (inactive) | > 100 µM (inactive) | > 100 µM (inactive) | – | > 100 µM (inactive) | – | –
11 | O=C(Nc1c(O)[nH]c(=S)[nH]c1=O)c1ccc2ccccc2n1 | > 100 µM (inactive) | > 100 µM (inactive) | > 100 µM (inactive) | > 100 µM (inactive) | – | > 100 µM (inactive) | > 100 µM (inactive) | > 100 µM (inactive) | – | > 100 µM (inactive) | > 100 µM (inactive) | > 100 µM (inactive) | > 100 µM (inactive) | > 100 µM (inactive) | – | –
12 | COc1ccc(/C=C/C(=O)C(C)C)cc1 | 34.1 µM (inactive) | > 100 µM (inactive) | – | > 100 µM (inactive) | > 100 µM (inactive) | 28.3 µM (inactive) | 50.9 µM (inactive) | 33.2 µM (inactive) | > 100 µM (inactive) | 44.8 µM (inactive) | 59.6 µM (inactive) | 43.8 µM (inactive) | 25.2 µM (inactive) | 34.8 µM (inactive) | – | –
13 | Nc1ncnc2c1ncn2C1CC(OC2CCCCO2)C(CO)O1 (centres undefined) | > 100 µM (inactive) | > 100 µM (inactive) | > 100 µM (inactive) | > 100 µM (inactive) | > 100 µM (inactive) | > 100 µM (inactive) | > 100 µM (inactive) | 61.8 µM (inactive) | > 100 µM (inactive) | – | > 100 µM (inactive) | > 100 µM (inactive) | > 100 µM (inactive) | > 100 µM (inactive) | – | –
14 | COC(=O)/C(=N/NC(N)=O)C(C(=O)OC)C(=O)C(=O)Nc1ccc(Cl)cc1 (centres undefined) | > 100 µM (inactive) | > 100 µM (inactive) | > 100 µM (inactive) | > 100 µM (inactive) | > 100 µM (inactive) | > 100 µM (inactive) | > 100 µM (inactive) | > 100 µM (inactive) | > 100 µM (inactive) | > 100 µM (inactive) | > 100 µM (inactive) | > 100 µM (inactive) | 20.8 µM (inactive) | > 100 µM (inactive) | – | –
15 | CCOc1cccc2c1N[S@@](=O)S2 | 47.8 µM (inactive) | > 100 µM (inactive) | > 100 µM (inactive) | > 100 µM (inactive) | – | > 100 µM (inactive) | > 100 µM (inactive) | 55.3 µM (inactive) | – | > 100 µM (inactive) | > 100 µM (inactive) | – | 74.8 µM (inactive) | – | – | –
16 | Cc1c2cc[n+](COC(=O)c3ccccc3)cc2c(C)c2c1[nH]c1ccccc12 | 0.515 µM (active) | 0.299 µM (active) | – | 1.64 µM (inactive) | 0.824 µM (active) | – | 0.532 µM (active) | 0.255 µM (active) | – | 1.4 µM (inactive) | 0.743 µM (active) | 1.31 µM (inactive) | 0.212 µM (active) | 0.551 µM (active) | – | –
17 | O=c1cc(-c2ccccc2)[nH]c2cc(F)cc(F)c12 | 29.1 µM (inactive) | 37.8 µM (inactive) | 20.9 µM (inactive) | 27.2 µM (inactive) | 43.5 µM (inactive) | 30.3 µM (inactive) | 50.9 µM (inactive) | 75.5 µM (inactive) | – | 21.8 µM (inactive) | 31.6 µM (inactive) | 26.5 µM (inactive) | 3.75 µM (inactive) | 57.5 µM (inactive) | – | –
18 | NC1CCCCC1.O=P(O)(O)C1(P(=O)(O)O)CC1 | > 100 µM (inactive) | > 100 µM (inactive) | > 100 µM (inactive) | > 100 µM (inactive) | > 100 µM (inactive) | > 100 µM (inactive) | > 100 µM (inactive) | > 100 µM (inactive) | > 100 µM (inactive) | > 100 µM (inactive) | > 100 µM (inactive) | > 100 µM (inactive) | – | > 100 µM (inactive) | – | –
19 | O=C(Nc1cccc(Cl)c1)C(=O)C(C(=O)c1ccc2ccccc2c1)C1OC(=O)c2ccccc21 (centres undefined) | 5.4 µM (inactive) | 22.4 µM (inactive) | 2.86 µM (inactive) | 9.62 µM (inactive) | 24.8 µM (inactive) | 16 µM (inactive) | 25.4 µM (inactive) | 3.99 µM (inactive) | 10.2 µM (inactive) | 18.5 µM (inactive) | 13.8 µM (inactive) | 16.8 µM (inactive) | – | 13.9 µM (inactive) | – | –
20 | CCCCCCCCCC(=O)OCC1OC(n2cc(F)c(=O)[nH]c2=O)C(N)C(OC(=O)CCCCCCCCC)C1O (centres undefined) | 17.1 µM (inactive) | > 100 µM (inactive) | – | 16.7 µM (inactive) | – | 19.2 µM (inactive) | 40.2 µM (inactive) | 14.1 µM (inactive) | 15.5 µM (inactive) | 38.2 µM (inactive) | 17.4 µM (inactive) | 37.2 µM (inactive) | 19.7 µM (inactive) | 18.2 µM (inactive) | – | –
21 | CC(=O)NC1=C(C)C(=O)c2c(nc3n2CCC3O)C1=N (centres undefined) | 13.2 µM (inactive) | 18.7 µM (inactive) | 17.4 µM (inactive) | 17.2 µM (inactive) | 21.6 µM (inactive) | – | 16.3 µM (inactive) | 1.95 µM (inactive) | 21.3 µM (inactive) | 13.4 µM (inactive) | 2.36 µM (inactive) | 38.8 µM (inactive) | > 100 µM (inactive) | 4.55 µM (inactive) | – | –
